Data reported in PubChem BioAssay (NCI).
Several values for one entry are separate records, joined by “and”; a condition that tells them apart may be missing. Identical values can stand only once.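 In this assay, cells in 96-well plates receive the compound at five concentrations for 48 hours. Endpoints are linearly interpolated between the surrounding concentrations. At the GI50, growth is halved. TGI: total growth inhibition.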

How the values were obtained:
Experiment in all cases: growth of human tumour cells (NCI), 48 h
CCRF-CEM leukemia = tested on: CCRF-CEM leukemia
HCT-15 colon = tested on: HCT-15 colon
MALME-3M melanoma = tested on: MALME-3M melanoma
MDA-MB-435 = tested on: MDA-MB-435
NCI-H23 lung = tested on: NCI-H23 lung
NCI/ADR-RES ovarian = tested on: NCI/ADR-RES ovarian
SK-MEL-2 melanoma = tested on: SK-MEL-2 melanoma
SK-OV-3 ovarian = tested on: SK-OV-3 ovarian
UACC-257 melanoma = tested on: UACC-257 melanoma
SK-MEL-5 melanoma = tested on: SK-MEL-5 melanoma

| SMILES | GI50 (CCRF-CEM leukemia) [µM] | TGI (CCRF-CEM leukemia) [µM] | GI50 (HCT-15 colon) [µM] | TGI (HCT-15 colon) [µM] | GI50 (MALME-3M melanoma) [µM] | TGI (MALME-3M melanoma) [µM] | GI50 (MDA-MB-435) [µM] | TGI (MDA-MB-435) [µM] | GI50 (NCI-H23 lung) | TGI (NCI-H23 lung) [µM] | GI50 (NCI/ADR-RES ovarian) [µM] | TGI (NCI/ADR-RES ovarian) [µM] | TGI (SK-MEL-2 melanoma) [µM] | GI50 (SK-OV-3 ovarian) [µM] | TGI (SK-OV-3 ovarian) [µM] | TGI (UACC-257 melanoma) [µM] | GI50 (SK-MEL-2 melanoma) [µM] | GI50 (SK-MEL-5 melanoma) | TGI (SK-MEL-5 melanoma) [µM] | GI50 (UACC-257 melanoma) |
| --- | --- | --- | --- | --- | --- | --- | --- | --- | --- | --- | --- | --- | --- | --- | --- | --- | --- | --- | --- | --- |
| COc1ccc2c(c1)O/C(=C\c1ccc([N+](=O)[O-])s1)C2=O | 0.478 | > 100 | 0.259 | 0.825 | 4.99 | > 100 | > 100 | > 100 | 1.33 µM | 5.92 | 4.52 | > 100 | > 27 | > 22.7 | > 62.7 | > 100 |  |  |  |  |
| COC(=O)C1=C(O)C(C(=O)OC)[C@@]2(O)[C@@H](C(=O)OC)C(c3ccccc3Cl)C[C@@H]1[C@@H]2C(=O)OC (some centres undefined) | 1.64 | 5.12 | 4.7 | 18 | 10.6 | 29.9 | 3.09 | 8.82 | 9.79 µM | 23.3 | 3.16 | 15.9 | 17.7 | 23.6 | 63.4 | 38.8 | 3.62 | 11.1 µM | 24.2 | 15.9 µM |
| CCCCCCCCC(=O)NCCN(CCN)C(=O)CCCCCCCC |  | 8.19 |  | 10.3 |  | 33.6 |  | 29.7 |  | 32.2 |  | 31.1 | 30.1 |  | 29.9 | 33.7 |  |  | 26.4 |  |
| N#CC1C(=O)NC(=O)C(C#N)C1c1ccc(Cl)c(Cl)c1 (centres undefined) |  | 31.9 |  | 46.1 |  | > 100 |  | 49 |  | 49.2 |  | 83.1 | > 100 |  | > 100 | 86.7 |  |  | 48.3 |  |
| CN1CCN(Cc2ccc(NC(=O)c3[nH]ncc3Nc3cc(OC4CCCC4)ncn3)cc2)CC1 | 2.39 | 11.2 | 1.24 | 11 | 2.05 | 5.43 | 1.84 | 8.32 | 3.07 µM | 14.4 | 3.68 | 15 | 15.3 | 1.28 | 4.36 | 9.6 | 3.75 | 1.44 µM | 4.07 | 3.42 µM |
| CCN1C(=O)N(CC)C2C1NN=c1s/c(=C\c3cnc(C)n3C)c(=O)n12 (centres undefined) | 2.75 | > 100 | 3.42 | > 100 | 2.96 | > 100 | 0.321 | 1.36 | 3.17 µM | > 100 | 10.3 | > 100 | 11.3 | 2.74 | > 100 | > 100 | 1.85 | 1.2 µM | 11.1 | 4.69 µM |
| CC(=O)Nc1cc(CN2CCCCC2)c(O)c2ncccc12 |  | > 100 |  | > 100 |  | 69.4 |  | > 100 |  | > 100 |  | > 100 | 23 |  | > 100 | 88.7 |  |  | > 100 |  |
| O=S1(=O)C=C(c2ccccc2)C(c2ccccc2)=C1 | 3 | 7.6 | 1.53 | 3.15 | 1.93 | 4.72 | 1.41 | 3.33 | 1.86 µM | 3.93 | 2.73 | 9.31 |  | 7.81 | 20.2 | 2.96 |  | 1.57 µM | 2.9 | 1.52 µM |
| CC(=O)N1c2ccc(-c3ccc(C(=O)O)cc3)cc2[C@H](Nc2ccc(Cl)cc2)C[C@@H]1C | 1.63 | 30.3 | 0.0613 | 13.5 | 0.168 | 3.64 | 0.233 | > 56 | 0.918 µM | 44.3 | 0.551 | > 100 | 14.3 | 0.138 | 22.5 | 21.5 | 0.581 | 0.357 µM | 12.6 | 0.366 µM |
| CN1C(=O)C(C)(C)Oc2c(-c3cn(C)c(=O)c4[nH]ccc34)cc(S(C)(=O)=O)cc21 | 1.45 | > 100 | 2.58 | 39.2 | 1.1 | 25.8 | 0.637 | > 100 | 1.71 µM | 18.7 | 14.3 | > 100 | > 100 | 0.705 | 7.04 | > 100 | 1.95 | 1.34 µM | 3.27 | 0.865 µM |
| O=C(N/N=C/c1cccc(O)c1)c1ccc(C(F)(F)F)nc1Nc1cccc(C(F)(F)F)c1 | 0.258 | 1.08 | 0.881 | 10.1 | 1.36 | 3.83 | 1.65 | 4.23 | 1.62 µM | 5.07 | 2.04 | 5.93 | 6.07 | 1.77 | 6.02 | 8.44 | 1.76 | 1.21 µM | 2.44 | 2.36 µM |
| C[C@H](CCCOS(C)(=O)=O)[C@H]1CC[C@H]2[C@@H]3CC[C@@H]4C[C@H](OS(C)(=O)=O)CC[C@]4(C)[C@H]3CC[C@]12C | > 2500 | > 2500 | 1020 | > 2500 | 994 |  | 1140 |  | 286 µM |  | 10.5 |  | > 2500 | > 2500 |  | > 2500 | 989 | 1110 µM | > 2500 | 816 µM |
| CC(C)CC1NC(=O)C(C(C)C)NC(=O)CC(C)COC(=O)C(CC(C)C)N(C)C(=O)C(C(C)C)NC(=O)C(C(C)C)OC1=O (centres undefined) |  | > 50 |  | > 50 |  | > 50 |  | > 50 |  | > 50 |  | > 50 | > 50 |  | > 50 | > 50 |  |  | > 50 |  |
| C[C@H](c1ccc(Cl)cc1[N+](=O)[O-])N1C(=O)c2cc(I)ccc2NC(=O)[C@H]1c1ccc(Cl)cc1 | > 100 | > 100 | > 100 | > 100 | > 100 | > 100 | > 100 | > 100 | > 100 µM | > 100 | > 100 | > 100 | > 100 | > 100 | > 100 | > 100 | > 100 | > 100 µM | > 100 | 33.9 µM |
| CCC(=O)Oc1ccc(/C=N/NC(N)=S)nc1 | 2.81 | > 100 | 6.38 | > 100 | 6.86 | > 100 | 7.86 | > 100 | 2.48 µM | > 100 | 3.27 | > 100 | > 100 | 29.7 | > 100 | > 100 | 33 | 3.01 µM | 77.2 | 21.5 µM |
| CCCC(CCC)C(=O)O | > 100 | > 20000 | > 100 | > 20000 | > 100 | > 20000 | > 100 | > 20000 | > 20000 µM | > 20000 | > 100 | > 20000 | > 20000 | > 20000 | > 20000 | > 20000 | > 100 |  | 9570 | > 100 µM |
| COc1cc2c3c(n(CCCN4CCN(CCO)CC4)c(=O)c2cc1OC)-c1cc2c(cc1C3=O)OCO2 | 0.203 | 1.8 | 18.1 | > 61.2 | 15.3 | 31 | > 100 | > 100 | 4.77 µM | 16.5 | 18.2 | > 100 | > 100 | 21.1 | > 78.9 | > 81.4 | > 100 | 13 µM | 26 | 30.6 µM |
| O=[N+]([O-])c1ccc2nc(=S)[nH]n2c1 |  | > 100 |  | > 100 |  | > 100 |  | > 100 |  | > 100 |  | > 100 | > 100 |  | > 100 | > 100 |  |  | > 100 |  |
| O=C1/C(=C/c2cccc(F)c2)CN(C(=O)C(Cl)Cl)C/C1=C\c1cccc(F)c1 | 0.0345 | 17.7 | 0.0855 | 0.312 | 0.218 | 0.621 | 0.21 | 0.491 | 0.234 µM | 0.69 | 0.304 | 1.49 | 1.27 | 0.6 | 1.79 | 1.63 | 0.343 | 0.2 µM | 0.431 | 0.606 µM |
| COC(=O)CCc1c(/C=C2\N=C(c3ccc[nH]3)C=C2OC)[nH]c(C)c1C(=O)OCc1ccccc1 | 0.0933 | > 58 | 0.177 | 1.53 | 0.638 | 2.12 | 0.409 | 2.25 | 0.795 µM | 4.31 | 0.437 | 3.78 | 1.24 | 1.67 | 12.6 | 5.25 | 0.304 | 0.47 µM | 1.75 | 1.16 µM |
| C=C1C(OCCO)OC2O[C@]3(C)CCC4[C@H](C)CCC1C24OO3 (some centres undefined) | 4.92 | 28.4 | 3.88 | > 100 | 52.7 | > 100 | 12.9 | 83.6 | 7.46 µM | 53.6 | 36 | > 100 | > 100 | > 100 | > 100 | > 100 | 71.1 | 23.8 µM | > 100 | > 100 µM |
| Nc1ncnc2c1ncn2C1OC(C(=O)OCCO)C(O)C1O (centres undefined) |  | > 100 |  | > 100 |  | > 100 |  | > 100 |  | > 100 |  | > 100 | > 100 |  | > 100 | > 100 |  |  | > 100 |  |
| Cn1c(=O)c2[nH]cnc2n(C)c1=O.[CH2-]C(Cc1cccc2cc(C(=O)O)c(=O)oc12)OC.[Hg+2].[OH-] (centres undefined) | 3.21 | 18 | 16.6 | 30.9 | 8.67 | 20.4 | 16.9 | 30.6 | 16.8 µM | 30.9 | 19.8 | 38.1 | 31.5 | > 44 | > 58.5 | 31.8 | 17.4 | 17.4 µM | 31.2 | 17.9 µM |
| NC(N)=N/N=C/c1ccc(Br)cc1 | 12.6 | > 100 | 3.89 | 19 | 10.1 | 22.7 | 1.07 | 3.81 | 4.81 µM | 19.6 | 3.15 | 10.6 | 26.4 | 6.75 | 30.5 | 29.1 | 12 | 2.36 µM | 9.28 | 12.8 µM |
| O=C1C=C(OCC=C(Cl)Cl)C(=O)c2ccccc21 | 3.03 | > 19.7 | 7.05 | > 100 | 2.18 | 6.11 | 1.65 | 3.04 | 3.63 µM | > 85 | 3.94 | > 51.7 |  | > 100 | > 100 | 11 | 2.34 | 1.53 µM | 3.85 | 2.15 µM |
| NS(=O)(=O)c1ccc(N=Nc2c(=O)[nH]c3ccc4[nH]cccc4c23)cc1 | 0.202 | > 25 | 2.12 | > 25 | 1.05 | 3.05 | 0.553 | > 25 | 0.671 µM | 3.77 | > 15.8 | > 25 | 0.696 | 1.25 | > 25 | 6.98 | 0.182 | 0.256 µM | 4.69 | 0.828 µM |
| CCCNC(=O)Nc1ccc2c(c1)Cc1cc(N(CCCl)CCCl)ccc1-2 |  | > 100 |  | > 100 |  | > 100 |  | 68.9 |  | > 100 |  | > 100 | 62.9 |  |  | > 100 |  |  | 33 |  |
| NC(N)=NC(N)=NCc1ccco1 |  |  | > 1250 | > 1250 | 741 | > 1250 | > 1250 | > 1250 | 869 µM and 661 µM | > 1250 | > 1250 | > 1250 | > 1250 | > 1250 | > 1250 | > 1250 | > 1250 | 363 µM and 119 µM | > 1250 | 843 µM and 565 µM |
